# Earlier results, collected in patent US20260102372A1, “NEW FORMULATIONS FOR MENTAL DISORDERS OR MENTAL ENHANCEMENT” (TACTOGEN INC, priority 2023, published 2026).
# Tests used:
# PTSD = conditions: MDMA arm
# [1] = pooled Phase 2 trials
# [2] = not given; remark: listed apart in the source
# [3] = target: cytochrome p450 isozyme 2D6 (CYP2D6) (Homo sapiens, UniProt P10635)
# [4] = nonhuman animals
# Chain of cytochrome p450 isozyme 2D6 (CYP2D6) (P10635 whole entry): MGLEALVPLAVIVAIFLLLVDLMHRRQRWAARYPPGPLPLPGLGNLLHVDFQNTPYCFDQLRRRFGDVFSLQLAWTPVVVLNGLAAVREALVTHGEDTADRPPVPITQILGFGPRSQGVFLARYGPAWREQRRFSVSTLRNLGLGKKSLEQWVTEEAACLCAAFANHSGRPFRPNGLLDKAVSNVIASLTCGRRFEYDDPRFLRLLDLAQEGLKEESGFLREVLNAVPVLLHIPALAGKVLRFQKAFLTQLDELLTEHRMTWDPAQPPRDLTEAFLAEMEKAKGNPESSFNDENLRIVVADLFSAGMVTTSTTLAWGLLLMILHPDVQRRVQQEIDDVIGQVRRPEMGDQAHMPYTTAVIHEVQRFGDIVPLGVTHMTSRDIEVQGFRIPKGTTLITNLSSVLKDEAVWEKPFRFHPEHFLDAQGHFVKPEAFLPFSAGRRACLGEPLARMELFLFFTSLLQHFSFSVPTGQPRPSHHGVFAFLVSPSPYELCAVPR
smiles,measurement,setting,value
"CNC(C)Cc1ccc2c(c1)OCO2 (stereo not shown) [MDMA, [1-(2H-1,3-benzodioxol-5-yl)propan-2-yl](methyl)amine]",participants with sufficient improvement that they were no longer diagnosable with PTSD,PTSD; first of two Phase 3 trials (Mitchell et al. 2021),one-third
same,participants improved,"PTSD; first of two Phase 3 trials, MDMA-assisted therapy for PTSD (Mitchell et al. 2021)",88%
same,duration of acute psychological and emotional effects (average),"after 75 or 125 mg MDMA, standard deviation 1.3 hours (Vizeli & Liechti 2017)",4.2 hours
same,time by which acute emotional effects have largely resolved,after administration of MDMA,≤ 8 h
same,nausea occurred in participants,[1]; 29 of 72 participants (Mithoefer et al. 2019),40.3%
same,anxiety occurred in participants,[1]; 52 of 72 participants (Mithoefer et al. 2019),72.2%
same,half-life in plasma,[2],seven to nine
same,CYP2D6 interaction,[3],both a substrate and inhibitor
same,"markers of serotonergic functioning (brain serotonin, tryptophan hydroxylase, serotonin transporter density)",[4],decreases
same,measures of oxidative stress,[4],increases
